# Reference: US20250388605A1, “HETEROBIFUNCTIONAL COMPOUNDS AND METHODS OF TREATING DISEASE” (Halda Therapeutics OpCo, Inc., priority 2022, published 2025)
# System: T47D cells
# Assay: Cellular Growth Inhibition Assay for T47D Cells (CellTiter-Glo)
# Type: cell-based, human
# Settings: 72 hours
# Procedure: Exemplary compounds were tested for ability to inhibit the proliferation of T47D cells. T47D cells are a commercially available human breast cancer cell line.
# T47D cells were purchased from American Type Cell Culture (ATCC Cat #HTB-133) and then seeded on poly-D-lysine coated, black clear-bottom 384-well plates at 3000/well in 25 μL Dulbecco's Modified Eagle Medium (DMEM) supplemented with 10% w/w Fetal bovine serum (FBS), 0.2 units/mL recombinant human insulin (Gibco Cat #12585014), and 1% w/w Pen-Strep. Pen-Strep is a commercially available mixture of penicillin G and streptomycin, which is used in mammalian cell culture media to prevent bacterial contamination. Dulbecco's Modified Eagle Medium (DMEM) supplemented with 10% w/w fetal bovine serum (FBS), 0.2 units/mL recombinant human insulin, and 1% w/w Pen-Strep is herein referred to as Treatment Medium. Following seeding of cells in the plates, the plates were spun at 300×g for 30 seconds, then equilibrated to room temperature for 30 minutes, and then deposited in a humidified tissue culture incubator maintained at 37° C. with 5% CO2.
# At 24 hours after seeding of the cells, dilutions of test compound were prepared in DMSO and dissolved in Treatment Medium, to achieve a final DMSO concentration of 0.5% w/w, thereby providing the Test Compound Solution. A 25 μL aliquot of the Test Compound Solution was added to cells in the well plates. An equal volume of a solution containing DMSO and Treatment Medium was used as a negative control. Following treatment of cells with Test Compound Solution or said equal volume of a solution containing DMSO and Treatment Medium, the plates were spun at 300×g for 30 seconds, and then left in an incubator for 72 hours.
# At the end of the treatment duration, cell viability was quantified with CellTiter-Glo 2.0 reagent (Promega Cat #G9243). For this purpose, plates were equilibrated to room temperature for 30 minutes, and then 25 μL of CellTiter-Glo 2.0 reagent was added to cells in the plate wells. Plates were then agitated on a shaker for two minutes at 500 rpm and subsequently incubated at room temperature for 10 minutes. Following incubation, the plates were spun at 3000×g for 30 seconds, then sealed with an optical adhesive cover, and luminescence readings were measured with an EnVision Plate Reader (Perkin Elmer).
# Data was normalized using zero luminescence for baseline. A four-parameter non-linear regression curve fit was applied to dose-response data in GraphPad Prism data analysis software to determine the half-maximal growth inhibitory concentration (GI50) for each test compound.
row,SMILES,GI50 [nM]
1,Cn1cc(-c2ccccc2Oc2ccc(N3CC(C4CCN(c5ncc(C(=O)N[C@H]6C(C)(C)[C@H](Oc7ccc(C#N)c(Cl)c7)C6(C)C)cn5)CC4)C3)cc2)c2cc[nH]c2c1=O [Compound I-360],500 to 1500
2,Cn1cc(-c2ccccc2Oc2ccc(N3CC(CC4CCN(c5cnc(C(=O)N[C@H]6C(C)(C)[C@H](Oc7ccc(C#N)c(Cl)c7)C6(C)C)cn5)CC4)C3)cc2)c2cc[nH]c2c1=O [Compound I-361],< 500
3,Cn1cc(-c2cc(C(C)(C)O)ccc2Oc2ccc(N3CC(C4CCN(c5ccc(C(=O)N[C@H]6C(C)(C)[C@H](Oc7ccc(C#N)c(Cl)c7)C6(C)C)cn5)CC4)C3)cc2)c2cc[nH]c2c1=O [Compound I-382],< 500
4,Cn1cc(-c2ccccc2Oc2ccc(N3CC(C4CCN(c5cnc(C(=O)N[C@H]6C(C)(C)[C@H](Oc7ccc(C#N)c(Cl)c7)C6(C)C)cn5)CC4)C3)cc2)c2cc[nH]c2c1=O [Compound I-365],< 500
5,CC(C)c1ccc(Oc2cccc(OCCC3CCN(c4ncc(C(=O)N[C@H]5C(C)(C)[C@H](Oc6ccc(C#N)c(Cl)c6)C5(C)C)cn4)CC3)c2)c(-c2cn(C)c(=O)c3[nH]ccc23)c1 [Compound I-141],500 to 1500
6,Cn1cc(-c2ccccc2Oc2ccc(N3CC(CC4CN(c5ncc(C(=O)N[C@H]6C(C)(C)[C@H](Oc7ccc(C#N)c(Cl)c7)C6(C)C)cn5)C4)C3)cc2)c2cc[nH]c2c1=O [Compound I-363],< 500
7,Cn1cc(-c2cc(C(C)(C)O)ccc2Oc2ccc(N3CC4(C3)CN(c3cnc(C(=O)N[C@H]5C(C)(C)[C@H](Oc6ccc(C#N)c(Cl)c6)C5(C)C)cn3)C4)cc2)c2cc[nH]c2c1=O [Compound I-355],< 500
8,Cn1cc(-c2cc(C(C)(C)O)ccc2Oc2cccc(N3CC(CC4CCN(c5ncc(C(=O)N[C@H]6C(C)(C)[C@H](Oc7ccc(C#N)c(Cl)c7)C6(C)C)cn5)CC4)C3)c2)c2cc[nH]c2c1=O [Compound I-376],< 500
9,Cn1cc(-c2ccccc2Oc2ccc(N3CC(CC4CCN(c5ccc(C(=O)N[C@H]6C(C)(C)[C@H](Oc7ccc(C#N)c(Cl)c7)C6(C)C)nc5)CC4)C3)cc2)c2cc[nH]c2c1=O [Compound I-364],> 3000
10,COc1cc(Oc2ccc(C(C)(C)O)cc2-c2cn(C)c(=O)c3[nH]ccc23)ccc1N1CC(CC2CCN(c3cnc(C(=O)N[C@H]4C(C)(C)[C@H](Oc5ccc(C#N)c(Cl)c5)C4(C)C)cn3)CC2)C1 [Compound I-394],< 500
11,Cn1cc(-c2cc(C(C)(C)O)ccc2Oc2ccc(N3CC(C4CCCN(c5ncc(C(=O)N[C@H]6C(C)(C)[C@H](Oc7ccc(C#N)c(Cl)c7)C6(C)C)cn5)CCC4)C3)cc2)c2cc[nH]c2c1=O [Compound I-362],< 500
12,COc1cc(O[C@H]2C(C)(C)[C@H](NC(=O)c3cnc(N4CCC(CC5CN(c6ccc(Oc7ccc(C(C)(C)O)cc7-c7cn(C)c(=O)c8[nH]ccc78)cc6)C5)CC4)cn3)C2(C)C)ccc1C#N [Compound I-384],< 500
13,Cn1cc(-c2cc(C(C)(C)O)ccc2Oc2cccc(CC3CCN(c4ncc(C(=O)N[C@H]5C(C)(C)[C@H](Oc6ccc(C#N)c(Cl)c6)C5(C)C)cn4)CC3)c2)c2cc[nH]c2c1=O [Compound I-374],500 to 1500

# Same assay, conditions: Homo sapiens, 72 hours
row,SMILES,GI50 [nM]
1,Cn1cc(-c2ccccc2Oc2ccc(OC3CC4(C3)CC3(CCN(c5ncc(C(=O)N[C@H]6C(C)(C)[C@H](Oc7ccc(C#N)c(Cl)c7)C6(C)C)cn5)CC3)C4)cc2)c2cc[nH]c2c1=O [Compound I-358],> 3000
2,Cn1cc(-c2cc(C(C)(C)O)ccc2Oc2ccc(C3CC(CC4CCN(c5ncc(C(=O)N[C@H]6C(C)(C)[C@H](Oc7ccc(C#N)c(Cl)c7)C6(C)C)cn5)CC4)C3)cc2)c2cc[nH]c2c1=O (stereo partly drawn) [Compound I-354],< 500
3,Cn1cc(-c2cc(C(C)(C)O)ccc2Oc2ccc(N3CC(CC4CCN(c5cnc(C(=O)N[C@H]6C(C)(C)[C@H](Oc7ccc(C#N)c(Cl)c7)C6(C)C)cn5)CC4)C3)cc2Cl)c2cc[nH]c2c1=O [Compound I-393],< 500
4,"Cn1cc(-c2cc(C(C)(C)O)ccc2Oc2ccc(C#CC3CC4(C3)CN(c3ncc(C(=O)NC5C(C)(C)C(Oc6ccc(C#N)c(Cl)c6)C5(C)C)cn3)C4)cc2)c2cc[nH]c2c1=O (stereo not drawn) [Compound I-357, N-[3-(3-chloro-4-cyano-phenoxy)-2,2,4,4-tetramethyl-cyclobutyl]-2-[6-[2-[4-[4-(1-hydroxy-1-methyl-ethyl)-2-(6-methyl-7-oxo-1H-pyrrolo[2,3-c]pyridin-4-yl)phenoxy]phenyl]ethynyl]-2-azaspiro[3.3]heptan-2-yl]pyrimidine-5-carboxamide]",< 500
5,Cn1cc(-c2cc(C(C)(C)O)ccc2Oc2ccc(N3CC(CC4CCN(c5cnc(C(=O)N[C@H]6C(C)(C)[C@H](Oc7ccc(C#N)c(F)c7)C6(C)C)cn5)CC4)C3)cc2)c2cc[nH]c2c1=O [Compound I-383],< 500
6,Cn1cc(-c2cc(C(C)(C)O)ccc2Oc2ccc(N3CC(C[C@@H]4[C@H]5CN(c6ncc(C(=O)N[C@H]7C(C)(C)[C@H](Oc8ccc(C#N)c(Cl)c8)C7(C)C)cn6)C[C@@H]45)C3)cc2)c2cc[nH]c2c1=O [Compound I-372],< 500
7,Cn1cc(-c2cc(C(C)(C)O)ccc2Oc2ccc(OC3CC4(C3)CC3(CCN(c5ccc(C(=O)N[C@H]6C(C)(C)[C@H](Oc7ccc(C#N)c(Cl)c7)C6(C)C)nc5)CC3)C4)cc2)c2cc[nH]c2c1=O [Compound I-367],> 3000
8,Cn1cc(-c2cc(C(C)(C)O)ccc2Oc2ccc(CC3CC4(CCN(c5ncc(C(=O)N[C@H]6C(C)(C)[C@H](Oc7ccc(C#N)c(Cl)c7)C6(C)C)cn5)CC4)C3)cc2)c2cc[nH]c2c1=O [Compound I-324],< 500
9,Cn1cc(-c2cc(C(C)(C)O)ccc2Oc2ccc(OC3CC4(C3)CC3(CCN(c5cnc(C(=O)N[C@H]6C(C)(C)[C@H](Oc7ccc(C#N)c(Cl)c7)C6(C)C)cn5)CC3)C4)cc2)c2cc[nH]c2c1=O [Compound I-366],> 3000
10,Cn1cc(-c2cc(C(C)(C)O)ccc2Oc2ccc(CC3CC4(CCN(c5cnc(C(=O)N[C@H]6C(C)(C)[C@H](Oc7ccc(C#N)c(Cl)c7)C6(C)C)cn5)CC4)C3)cc2)c2cc[nH]c2c1=O [Compound I-375],> 3000
11,Cn1cc(-c2cc(C(C)(C)O)ccc2Oc2ccc(CC3CC4(CCN(c5ccc(C(=O)N[C@H]6C(C)(C)[C@H](Oc7ccc(C#N)c(Cl)c7)C6(C)C)cn5)CC4)C3)cc2)c2cc[nH]c2c1=O [Compound I-380],500 to 1500
12,Cn1cc(-c2cc(C(C)(C)O)ccc2Oc2ccc(CC3CCN(c4ccc(C(=O)N[C@H]5C(C)(C)[C@H](Oc6ccc(C#N)c(Cl)c6)C5(C)C)cn4)CC3)cc2)c2cc[nH]c2c1=O [Compound I-369],< 500
13,"COc1cc(N2CC(CC3CCN(c4cnc(C(=O)NC5C(C)(C)C(Oc6ccc(C#N)c(Cl)c6)C5(C)C)cn4)CC3)C2)ccc1Oc1ccc(C(C)(C)O)cc1-c1cn(C)c(=O)c2[nH]ccc12 (stereo not drawn) [Compound I-392, N-[3-(3-chloro-4-cyano-phenoxy)-2,2,4,4-tetramethyl-cyclobutyl]-5-[4-[[1-[4-[4-(1-hydroxy-1-methyl-ethyl)-2-(6-methyl-7-oxo-1H-pyrrolo[2,3-c]pyridin-4-yl)phenoxy]-3-methoxy-phenyl]azetidin-3-yl]methyl]-1-piperidyl]pyrazine-2-carboxamide]",< 500
14,Cn1cc(-c2cc(C(C)(C)O)ccc2Oc2ccc(CC3CCN(c4ccc(C(=O)N[C@H]5C(C)(C)[C@H](Oc6ccc(C#N)c(Cl)c6)C5(C)C)nc4)CC3)cc2)c2cc[nH]c2c1=O [Compound I-368],< 500
15,Cn1cc(-c2ccccc2Oc2ccc(CC3CCN(c4cnc(C(=O)N[C@H]5C(C)(C)[C@H](Oc6ccc(C#N)c(Cl)c6)C5(C)C)cn4)CC3)cc2)c2cc[nH]c2c1=O [Compound I-371],< 500
16,Cn1cc(-c2cc(C(C)(C)O)ccc2Oc2ccc(CC3CCN(c4cnc(C(=O)N[C@H]5C(C)(C)[C@H](Oc6ccc(C#N)c(Cl)c6)C5(C)C)cn4)CC3)cc2)c2cc[nH]c2c1=O [Compound I-370],< 500
17,"Cc1cc(Oc2ccc(C(C)(C)O)cc2-c2cn(C)c(=O)c3[nH]ccc23)cc(C)c1N1CC(CC2CCN(c3cnc(C(=O)N[C@H]4C(C)(C)[C@H](Oc5ccc(C#N)c(Cl)c5)C4(C)C)cn3)CC2)C1 [Compound I-391, N-[3-(3-chloro-4-cyano-phenoxy)-2,2,4,4-tetramethyl-cyclobutyl]-5-[4-[[1-[4-[4-(1-hydroxy-1-methyl-ethyl)-2-(6-methyl-7-oxo-1H-pyrrolo[2,3-c]pyridin-4-yl)phenoxy]-2,6-dimethyl-phenyl]azetidin-3-yl]methyl]-1-piperidyl]pyrazine-2-carboxamide]",< 500
